This note sets out measurements from patent US20140135526A1, “COMPOSITIONS AND METHODS FOR 3-HYDROXYPROPIONATE BIO-PRODUCTION FROM BIOMASS” (OPX Biotechnologies, Inc., priority 2007, published 2014).

Experiment [1] deals with E. coli. Nature of the experiment: Alleviation of 3-HP toxicity by adding downstream products of the chorismate superpathway. The format is cell-based. To be noted: added as supplement in the presence of 3-HP. An excerpt:
The data shown in FIG. 4 depict identification of the chorismate superpathway as a target of 3-HP toxicity. In some embodiments, toxicity is alleviated by several processes.

In experiment [2] the test system is wild type E. coli K12. Nature of the experiment: 3-HP toxicity (growth inhibition) in E. coli. The format is cell-based. An excerpt:
Previous attempts to produce 3-HP via biological pathways provide product titers which have been low and these processes have required the use of expensive, rich media. Both of these factors limit commercial feasibility and profitability. The use of rich media was necessary due to the toxicity of 3-HP when fermented with the more economical minimal media. […] Further, the fermentative pathways reported by other investigators have not addressed and resolved the toxicity mechanisms of 3-HP to the host organisms. Further to issues related to commodity chemical production, which largely relies on petroleum-based starting materials, there is an increasing need to reduce the domestic usage of petroleum and natural gas. The numerous motivating factors for this increasing need include, but are not limited to: pollutant reduction (such as greenhouse gases), environmental protection, and reducing the dependence on foreign oil. These issues not only impact fuel markets, but also the markets of numerous other products that are currently derived from oil. Biorefining promises the development of efficient biological processes allowing for the conversion of renewable sources of carbon and energy into large volume commodity chemicals.
FIG. 2 depicts 3-hydroxpropionate toxicity in E. coli K12. The minimum concentration of 3-HP that is required to inhibit visible growth after 24 hrs in minimal media is shown for wild type E. coli K12 grown in both minimal media and rich media which contains more complex nutrients.
Severe growth inhibition has been observed for extracellular 3-HP levels as low as 10 g/L in minimal media (pH 7.0), which limits the economic feasibility of 3-HP production as a platform chemical. […] However toxicity at levels below required titers (100 g/L) are still observed in rich media.

Experiment [3] has as its system AB354 (ΔpanD). In kind it is cell-based, E. coli. The conditions noted are these: M9 minimal media plates with threonine, leucine, thiamine; 37 C overnight; 10 g/L beta-alanine, 1 mM IPTG, 0.2 g/L putrescine, 200 mg/L ampicillin where indicated. The protocol:
(§1) E. coli AB354 (Δ panD) was transformed with the vector controls, pKK223, pKK223-Cterm-5×his (‘5×His’ disclosed as SEQ ID NO: 24), as well as the test vectors pKK223-mcr and pKK223-Cterm-5×His-kgd (‘5×His’ disclosed as SEQ ID NO: 24), according to standard methods described below. Each of the strains were grown overnight in LB rich media supplemented with 200 mg/L ampicillin (according to standard protocols). Following overnight growth, cells twice were harvested by centrifugation and washed by resuspension in M9 minimal media (standard protocol), diluted 1:10,000 and plated on M9 minimal media plates with 0.05 g/L threonine, 0.1 g/L leucine, 0.067 g/L thiamine, with the additional appropriate supplements, where indicated at the following concentrations (10 g/L beta-alanine (Sigma Aldrich, St. Louis, Mo.), 1 mM Isopropyl β-D-1-thiogalactopyranoside (Thermo Fisher Scientific, Fairlawn, N.J.), 0.2 g/L putrescine (MPBiomedicals, Santa Ana, Calif.), 200 mg/L ampicillin (Research Products International Corp., Mt. Prospect, Ill.) After plating, agarose plates were incubated at 37 C overnight by standard methods. […] A plus (+) indicates growth on a plate, minus (−) indicates no growth. […] Putrescine is known to induce the expression of gamma-aminobutyrate transaminase in E. coli. This enzyme has been shown in some species including Rattus norvegicus to also have beta-alanine aminotransferase activity.

In experiment [4] the test system is K12. In kind it is cell-based, E. coli. The conditions noted are these: M9 minimal media plates with threonine, leucine, thiamine; 37 C overnight; 10 g/L beta-alanine, 1 mM IPTG, 0.2 g/L putrescine, 200 mg/L ampicillin where indicated. How it is done:
as §1

The subject of experiment [5] is AB354 (ΔpanD) + pKK223-mer. The format is cell-based, E. coli. To be noted: M9 minimal media plates with threonine, leucine, thiamine; 37 C overnight; 10 g/L beta-alanine, 1 mM IPTG, 0.2 g/L putrescine, 200 mg/L ampicillin where indicated. How it is done:
as §1

For experiment [6], the system named is AB354 (ΔpanD) + pKK223. In kind it is cell-based, E. coli. To be noted: M9 minimal media plates with threonine, leucine, thiamine; 37 C overnight; 10 g/L beta-alanine, 1 mM IPTG, 0.2 g/L putrescine, 200 mg/L ampicillin where indicated. The protocol: as §1
Experiment [7] has as its system AB354 (ΔpanD) + pKK223-kgd. The format is cell-based, E. coli. To be noted: M9 minimal media plates with threonine, leucine, thiamine; 37 C overnight; 10 g/L beta-alanine, 1 mM IPTG, 0.2 g/L putrescine, 200 mg/L ampicillin where indicated. How it is done: as §1

`O=C(O)c1cccc(O)c1O` [2,3-dihydroxybenzoate]: the “effect of addition on 3-HP toxicity” value in experiment [1] is given as “alleviate toxicity to a degree”.

`O=C(O)CCO` [3-HP, 3-hydroxypropionate]: the “extracellular 3-HP level at which severe growth inhibition is observed” value in experiment [2] (minimal media (pH 7.0)) was ≥ 10 g/L. For the same molecule, in experiment [2] (rich media), the “3-HP level at which toxicity is still observed” value was < 100 g/L and the “product titer at which toxic effects are observed, relative to desired titers” value was “approximately two times lower than desired titers”. For the same molecule, the “3-HP level at which metabolic activity is significantly inhibited, relative to the approximate 100 g/L titer” value in experiment [2] (wild type E. coli, minimal media) was 5-10 times lower.

On to `CC1(C)S[C@@H]2[C@H](NC(=O)[C@H](N)c3ccccc3)C(=O)N2[C@H]1C(=O)O` [Amp, ampicillin], for which the “growth on plate, strain AB354 (ΔpanD)” value in experiment [3] is reported as “−”. Further, the “growth on plate, strain K12” value in experiment [4] is given as “−”. Further, the “growth on plate, strain AB354 (ΔpanD) + pKK223-mer” value in experiment [5] was “−”. The “growth on plate, strain AB354 (ΔpanD) + pKK223” value in experiment [6] is given as “−”. In experiment [7], the “growth on plate, strain AB354 (ΔpanD) + pKK223-kgd” value is on record as “−”.

Take `Nc1ccc(C(=O)O)cc1` [para-aminobenzoate]: the “effect of addition on 3-HP toxicity” value in experiment [1] is recorded as “alleviate toxicity to a degree”.

As for `O=C(O)c1ccc(O)cc1` [para-hydroxy-benzoate], in experiment [1], the “effect of addition on 3-HP toxicity” value is “alleviate toxicity to a degree”.

Regarding `N[C@@H](Cc1ccccc1)C(=O)O` [phenylalanine], in experiment [1], the “effect of addition on 3-HP toxicity” value was “alleviate toxicity to a degree”.

In the case of `N[C@@H](Cc1ccc(O)cc1)C(=O)O` [tyrosine], in experiment [1], the “effect of addition on 3-HP toxicity” value is listed as “alleviate toxicity to a degree”.

Take `NCCC(=O)O` [β-alanine, beta-alanine]: in experiment [3], the “growth on plate, strain AB354 (ΔpanD)” value is recorded as “+”. Further, in experiment [4], the “growth on plate, strain K12” value is given as “+”. For the same molecule, the “growth on plate, strain AB354 (ΔpanD) + pKK223-mer” value in experiment [5] is recorded as “+”. The “growth on plate, strain AB354 (ΔpanD) + pKK223” value in experiment [6] is reported as “+”. Also, in experiment [7], the “growth on plate, strain AB354 (ΔpanD) + pKK223-kgd” value is reported as “+”.
